Measurements: patent publication US20150246938A1, “NOVEL OLEFIN DERIVATIVE” (SHIONOGI & CO., LTD., priority 2011, published 2015)

molecular target: T1, recombinant human ACC2 (Homo sapiens, UniProt O00763); assay: Measurement of inhibitory activity on human ACC2 (MALDI-TOF MS, acetyl CoA to malonyl CoA conversion); format: biochemical; details: not given
T1 construct: a cDNA encoding human ACC2 (27-2458) was cloned from human kidney cDNA library (Clontech); His-tag (N); made in house; host or cells: Sf-9 insect cells (Bac-to-Bac baculovirus)
T1 sequence (O00763 27-2458): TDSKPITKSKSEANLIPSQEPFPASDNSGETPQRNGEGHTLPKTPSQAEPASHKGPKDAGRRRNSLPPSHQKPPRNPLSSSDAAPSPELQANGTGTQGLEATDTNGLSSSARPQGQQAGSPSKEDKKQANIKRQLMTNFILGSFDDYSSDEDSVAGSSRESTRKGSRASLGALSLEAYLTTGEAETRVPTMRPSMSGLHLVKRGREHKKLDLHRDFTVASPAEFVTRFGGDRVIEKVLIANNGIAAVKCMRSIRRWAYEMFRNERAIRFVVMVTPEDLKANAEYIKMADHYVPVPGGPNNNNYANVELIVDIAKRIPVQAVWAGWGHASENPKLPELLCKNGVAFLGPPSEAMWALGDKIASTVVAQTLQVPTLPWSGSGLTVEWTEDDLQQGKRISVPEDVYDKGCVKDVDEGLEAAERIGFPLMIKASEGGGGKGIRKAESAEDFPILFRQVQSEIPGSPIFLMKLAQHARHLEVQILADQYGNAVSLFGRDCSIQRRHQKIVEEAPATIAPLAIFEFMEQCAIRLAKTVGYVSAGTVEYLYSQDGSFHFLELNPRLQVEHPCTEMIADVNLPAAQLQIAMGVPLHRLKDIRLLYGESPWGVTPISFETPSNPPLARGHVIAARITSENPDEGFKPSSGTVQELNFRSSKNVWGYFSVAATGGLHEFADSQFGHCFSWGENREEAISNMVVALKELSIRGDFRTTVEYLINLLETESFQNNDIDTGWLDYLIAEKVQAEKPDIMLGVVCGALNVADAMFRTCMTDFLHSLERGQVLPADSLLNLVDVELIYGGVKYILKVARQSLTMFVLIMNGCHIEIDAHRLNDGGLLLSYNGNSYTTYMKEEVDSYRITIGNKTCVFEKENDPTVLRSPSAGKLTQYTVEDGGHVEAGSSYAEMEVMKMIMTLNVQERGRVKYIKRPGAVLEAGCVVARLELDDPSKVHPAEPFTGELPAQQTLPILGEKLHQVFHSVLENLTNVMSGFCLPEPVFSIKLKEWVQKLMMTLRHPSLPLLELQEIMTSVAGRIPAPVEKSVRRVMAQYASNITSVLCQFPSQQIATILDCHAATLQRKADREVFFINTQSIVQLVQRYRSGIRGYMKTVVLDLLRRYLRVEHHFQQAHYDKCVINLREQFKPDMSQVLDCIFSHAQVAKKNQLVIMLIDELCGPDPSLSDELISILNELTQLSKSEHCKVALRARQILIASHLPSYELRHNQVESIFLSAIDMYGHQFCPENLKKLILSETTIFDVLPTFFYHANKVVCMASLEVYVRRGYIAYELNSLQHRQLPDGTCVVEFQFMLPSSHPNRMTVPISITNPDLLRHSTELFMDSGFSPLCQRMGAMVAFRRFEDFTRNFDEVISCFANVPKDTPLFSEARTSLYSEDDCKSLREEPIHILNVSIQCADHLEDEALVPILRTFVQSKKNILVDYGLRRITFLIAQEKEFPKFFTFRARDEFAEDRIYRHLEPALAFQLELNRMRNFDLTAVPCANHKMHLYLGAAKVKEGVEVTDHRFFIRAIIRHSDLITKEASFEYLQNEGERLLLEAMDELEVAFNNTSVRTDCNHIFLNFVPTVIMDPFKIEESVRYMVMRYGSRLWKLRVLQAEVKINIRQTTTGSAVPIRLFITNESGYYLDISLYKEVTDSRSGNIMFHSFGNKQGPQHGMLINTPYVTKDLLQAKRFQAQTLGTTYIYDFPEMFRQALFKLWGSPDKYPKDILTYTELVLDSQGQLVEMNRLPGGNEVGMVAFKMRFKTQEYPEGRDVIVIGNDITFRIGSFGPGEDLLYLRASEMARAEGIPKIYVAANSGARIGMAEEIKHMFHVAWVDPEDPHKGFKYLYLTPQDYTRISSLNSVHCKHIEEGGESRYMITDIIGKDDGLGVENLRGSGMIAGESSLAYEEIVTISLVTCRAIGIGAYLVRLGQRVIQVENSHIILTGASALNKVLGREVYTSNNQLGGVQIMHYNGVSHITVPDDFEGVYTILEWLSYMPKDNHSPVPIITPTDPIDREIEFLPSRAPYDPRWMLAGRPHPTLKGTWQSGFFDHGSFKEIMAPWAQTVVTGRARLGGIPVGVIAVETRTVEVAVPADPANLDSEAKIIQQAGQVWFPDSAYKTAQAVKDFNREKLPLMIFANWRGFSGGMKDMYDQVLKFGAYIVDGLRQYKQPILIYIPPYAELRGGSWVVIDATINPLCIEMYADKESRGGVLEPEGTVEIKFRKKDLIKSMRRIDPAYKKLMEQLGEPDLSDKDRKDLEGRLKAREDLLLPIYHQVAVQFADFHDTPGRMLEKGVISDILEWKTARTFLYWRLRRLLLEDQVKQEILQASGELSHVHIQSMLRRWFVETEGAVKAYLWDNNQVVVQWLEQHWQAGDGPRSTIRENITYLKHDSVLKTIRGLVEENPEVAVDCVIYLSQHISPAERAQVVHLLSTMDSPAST

SMILES	IC50
CCNC(=O)N[C@@H](C)/C=C/c1cnc(Oc2ccc(OCC3CC3)cc2Cl)s1 [Compound I-195]	61 nM

same assay, conditions: inhibition activity on human ACC2, Table 80; read-out: IC50

SMILES	IC50
C[C@@H](/C=C/c1cnc(Oc2ccc(OCC3CC3)cc2Cl)s1)NC(=O)c1cccc(C#N)c1 [Compound I-155]	580 nM
COc1cccc(C(=O)N[C@@H](C)/C=C/c2cnc(Oc3ccc(OCC4CC4)cc3Cl)s2)c1 [Compound I-156]	930 nM
COc1cc(C(=O)N[C@@H](C)/C=C/c2cnc(Oc3ccc(OCC4CC4)cc3Cl)s2)ccn1 [Compound I-157]	260 nM
CCOCn1ccnc1-c1cc(C(=O)N[C@@H](C)/C=C/c2cnc(Oc3ccc(OCC4CC4)cc3Cl)s2)ccn1 [Compound I-158]	1400 nM
CC(=O)Nc1ncc(C(=O)N[C@@H](C)/C=C/c2cnc(Oc3ccc(OCC4CC4)cc3Cl)s2)s1 [Compound I-159]	220 nM
CCCOc1ccc(Oc2ncc(/C=C/[C@H](C)NC(=O)C3(C#N)CC3)s2)c(Cl)c1 [Compound I-162]	320 nM
CCCOc1ccc(Oc2ncc(/C=C/[C@H](C)NC(=O)c3ccnc(N)c3)s2)c(Cl)c1 [Compound I-163]	280 nM
CCCOc1ccc(Oc2ncc(/C=C/[C@H](C)NC(=O)c3ccncc3F)s2)c(Cl)c1 [Compound I-164]	850 nM
CCCOc1ccc(Oc2ncc(/C=C/[C@H](C)NC(=O)c3ccnc(N4CCOCC4)c3)s2)c(Cl)c1 [Compound I-165]	490 nM
CCCOc1ccc(Oc2ncc(/C=C/[C@H](C)NC(=O)c3ccnc(C(=O)OCC)c3)s2)c(Cl)c1 [Compound I-168]	22 nM
CCCOc1ccc(Oc2ncc(/C=C/[C@H](C)NC(=O)c3ccncc3)s2)c(Cl)c1 [Compound I-169]	370 nM
C[C@@H](/C=C/c1cnn(Cc2ccc(OCC3CC3)cc2Cl)c1)NC(=O)C1CC1 [Compound I-172]	600 nM
CCOC(=O)c1cc(C(=O)N[C@@H](C)/C=C/c2cnn(Cc3ccc(OCC4CC4)cc3Cl)c2)ccn1 [Compound I-173]	59 nM
C[C@@H](/C=C/c1cnn(Cc2ccc(OCC3CC3)cc2Cl)c1)NC(=O)c1ccon1 [Compound I-174]	2600 nM
C[C@@H](/C=C/c1cnc(Oc2ccc(OCC3CC3)cc2Cl)s1)NC(=O)C(F)F [Compound I-177]	18 nM
CCOc1ccc(Oc2ccc(/C=C/[C@H](C)NC(=O)C(F)F)cn2)c(Cl)c1 [Compound I-179]	42 nM
COC(=O)N[C@@H](C)/C=C/c1cnn(Cc2ccc(OCC3CC3)cc2Cl)c1 [Compound I-183]	660 nM
CCOc1ccc(Oc2ccc(/C=C/[C@H](C)NC(N)=O)cn2)c(Cl)c1 [Compound I-184]	110 nM
CCOc1ccc(C(F)(F)c2ccc(/C=C/[C@H](C)NC(N)=O)cn2)c(Cl)c1 [Compound I-188]	1800 nM
COCCNC(=O)N[C@@H](C)/C=C/c1cnc(Oc2ccc(OCC3CC3)cc2Cl)s1 [Compound I-189]	240 nM
C[C@@H](/C=C/c1cnc(Oc2ccc(OCC3CC3)cc2Cl)s1)NC(=O)NCC(F)F [Compound I-192]	81 nM
C[C@@H](/C=C/c1cnc(Oc2ccc(OCC3CC3)cc2Cl)s1)NC(=O)NCC(F)(F)F [Compound I-193]	140 nM

SMILES	IC50
C[C@@H](/C=C/c1cnc(Oc2ccc(OCC3CC3)cc2Cl)s1)NC(=O)NCCC(F)(F)F [Compound I-194]	300 nM
CCNC(=O)N[C@@H](C)/C=C/c1cnn(Cc2ccc(OCC3CC3)cc2Cl)c1 [Compound I-196]	1100 nM
CCOc1ccc(Oc2ccc(/C=C/[C@H](C)Nc3cc(C)on3)cn2)c(Cl)c1 [Compound I-203]	69 nM
CCOc1ccc(Oc2ccc(/C=C/[C@H](C)Nc3cc(C)no3)cn2)c(Cl)c1 [Compound I-204]	38 nM
Cc1cc(N[C@@H](C)/C=C/c2cnn(Cc3ccc(OCC4CC4)cc3Cl)c2)no1 [Compound I-205]	1600 nM
C[C@@H](/C=C/c1cnc(Oc2ccc(OCC3CC3)cc2Cl)s1)NC(=O)c1ccnc(C(=O)NCCO)c1 [Compound I-206]	6.3 nM
C[C@@H](/C=C/c1cnc(Oc2ccc(OCC3CC3)cc2Cl)s1)NC(=O)c1ccnc(C(=O)NCCN2CCOCC2)c1 [Compound I-208]	4.9 nM
C[C@@H](/C=C/c1cnc(Oc2ccc(OCC3CC3)cc2Cl)s1)NC(=O)c1ccnc(C(=O)NC2CCOCC2)c1 [Compound I-209]	4.5 nM
C[C@@H](/C=C/c1cnc(Oc2ccc(OCC3CC3)cc2Cl)s1)NC(=O)c1ccnc(C(=O)NCCN(C)C)c1 [Compound I-214]	18 nM
C[C@@H](/C=C/c1cnc(Oc2ccc(OCC3CC3)cc2Cl)s1)NC(=O)c1ccnc(C(=O)NCCN2CCCC2)c1 [Compound I-215]	24 nM
CC(C)ONC(=O)c1cc(C(=O)N[C@@H](C)/C=C/c2cnc(Oc3ccc(OCC4CC4)cc3Cl)s2)ccn1 [Compound I-216]	69 nM
CCNC(=O)c1cc(C(=O)N[C@@H](C)/C=C/c2cnn(Cc3ccc(OCC4CC4)cc3Cl)c2)ccn1 [Compound I-233]	44 nM
C[C@@H](/C=C/c1cnn(Cc2ccc(OCC3CC3)cc2Cl)c1)NC(=O)c1ccnc(C(N)=O)c1 [Compound I-235]	300 nM
C[C@@H](/C=C/c1cnn(Cc2ccc(OCC3CC3)cc2Cl)c1)NC(=O)c1ccnc(C(=O)NC(C)(C)C)c1 [Compound I-236]	15 nM
C[C@@H](/C=C/c1cnc(Oc2ccc(OCC3CC3)cc2Cl)s1)NC(=O)c1ccnc(CO)c1 [Compound I-237]	87 nM
C[C@@H](/C=C/c1cnc(Oc2ccc(OCC3CC3)cc2Cl)s1)NC(=O)c1ccnc(OCCN2CCCC2)c1 [Compound I-242]	16 nM
C[C@@H](/C=C/c1cnc(Oc2ccc(OCC3CC3)cc2Cl)s1)NC(=O)c1ccnc(NCCO)c1 [Compound I-243]	410 nM
C[C@@H](/C=C/c1cnc(Oc2ccc(OCC3CC3)cc2Cl)s1)NC(=O)c1ccnc(NCCN2CCCC2)c1 [Compound I-244]	36 nM
C[C@@H](/C=C/c1cnc(Oc2ccc(OCC3CC3)cc2Cl)s1)NC(=O)c1ccnc(NCCCN2CCCC2=O)c1 [Compound I-246]	73 nM
CCOC(=O)CCNc1cc(C(=O)N[C@@H](C)/C=C/c2cnc(Oc3ccc(OCC4CC4)cc3Cl)s2)ccn1 [Compound I-247]	430 nM
C[C@@H](/C=C/c1cnc(Oc2ccc(OCC3CC3)cc2Cl)s1)NC(=O)c1ccnc(OCC(=O)O)c1 [Compound I-248]	580 nM

same assay, conditions: inhibition activity on human ACC2, untitled table (Table 81); read-out: IC50

SMILES	IC50
CC(=O)N[C@@H](C)/C=C/c1ccc(Oc2ccc(NC(=O)CC3CC3)cc2Cl)nc1 [Compound I-251]	96 nM
CCC(C)(C)c1ccc(Oc2ccc(/C=C/[C@H](C)NC(C)=O)cn2)c(Cl)c1 [Compound I-253]	17 nM
CC(=O)N[C@@H](C)/C=C/c1ccc(Oc2ccnc(OCC3CC3)c2)nc1 [Compound I-255]	87 nM
CC(=O)N[C@@H](C)/C=C/c1ccc(Oc2ccc(NC(=O)CCCCl)cc2Cl)nc1 [Compound I-256]	50 nM
COc1cc(F)cc(Oc2ccc(/C=C/[C@H](C)NC(C)=O)cn2)c1 [Compound I-257]	160 nM
COc1ccc(F)c(Oc2ccc(/C=C/[C@H](C)NC(C)=O)cn2)c1 [Compound I-258]	450 nM
COc1cc(Oc2ccc(/C=C/[C@H](C)NC(C)=O)cn2)ccc1F [Compound I-259]	400 nM
CC(=O)N[C@@H](C)/C=C/c1ccc(Oc2ccc3c(c2)OCC(=O)N3CC2CC2)nc1 [Compound I-260]	150 nM
CC(=O)N[C@@H](C)/C=C/c1cnn(Cc2c(F)cc(OCC3CC3)cc2F)c1 [Compound I-261]	3000 nM
CC(=O)N[C@@H](C)/C=C/c1cnn(Cc2ccc(OCC3CC3)c(Cl)c2Cl)c1 [Compound I-262]	660 nM
CC(=O)N[C@@H](C)/C=C/c1cnn(Cc2cc(Cl)c(OCC3CC3)c(Cl)c2)c1 [Compound I-264]	840 nM
CC(=O)N[C@@H](C)/C=C/c1cnn(Cc2cc(F)c(OCC3CC3)c(Cl)c2)c1 [Compound I-265]	1100 nM
CC(=O)N[C@@H](C)/C=C/c1ccc(Oc2ccc(C3CC3)cc2Cl)nc1 [Compound I-266]	26 nM
CC(=O)N[C@@H](C)/C=C/c1ccc(Oc2ccc(-c3ccccc3)cc2Cl)nc1 [Compound I-267]	44 nM
CC(=O)N[C@@H](C)/C=C/c1ccc(Oc2ccc(-c3ncco3)cc2Cl)nc1 [Compound I-268]	110 nM
CCCc1ccc(Oc2ccc(/C=C/[C@H](C)NC(C)=O)cn2)cn1 [Compound I-269]	120 nM
COc1ccc(Oc2ccc(/C=C(\C)C(C)NC(C)=O)cn2)c(Cl)c1 (centres unmarked) [Compound I-270]	390 nM
CCOc1ccc(Oc2ccc(/C=C(\C)C(C)NC(C)=O)cn2)c(Cl)c1 (centres unmarked) [Compound I-271]	79 nM
CC(=O)N[C@@H](C)/C=C/c1ccc(Oc2ccc(N3CCCC3=O)cc2Cl)nc1 [Compound I-272]	450 nM
CC(=O)N[C@@H](C)/C=C/c1ccc(Oc2ccc(Cl)cc2Cl)nc1 [Compound I-273]	99 nM
CC(=O)N[C@@H](C)/C=C/c1cnc(Oc2ccc(Br)c(Cl)c2)nc1 [Compound I-274]	350 nM
CC#Cc1ccc(Oc2ccc(/C=C/[C@H](C)NC(C)=O)cn2)c(Cl)c1 [Compound I-275]	17 nM
CCOc1cc(F)cc(Oc2ccc(/C=C/[C@H](C)NC(C)=O)cn2)c1 [Compound I-276]	150 nM
CC(=O)N[C@@H](C)/C=C/c1ccc(Oc2cc(F)cc(OC(C)C)c2)nc1 [Compound I-277]	230 nM
CCOc1ccc(F)c(Oc2ccc(/C=C/[C@H](C)NC(C)=O)cn2)c1 [Compound I-278]	79 nM
CC(=O)N[C@@H](C)/C=C/c1ccc(Oc2cc(OC(C)C)ccc2F)nc1 [Compound I-279]	59 nM
CCOc1cc(Oc2ccc(/C=C/[C@H](C)NC(C)=O)cn2)ccc1F [Compound I-280]	170 nM
CC(=O)N[C@@H](C)/C=C/c1ccc(Oc2ccc(F)c(OC(C)C)c2)nc1 [Compound I-281]	130 nM
CC(=O)NC(C)/C(C)=C/c1ccc(Oc2ccc(OCC3CC3)cc2Cl)nc1 (centres unmarked) [Compound I-282]	13 nM
CC(=O)NC(C)/C(C)=C/c1ccc(Oc2ccc(O)cc2Cl)nc1 (centres unmarked) [Compound I-283]	3200 nM
